In PMC13170396 (Journal of controlled release : official journal of the …, 2025):

What was measured:
[1] = system: HCT116 and UISO-Mel29 cells; assay: Cell proliferation assay; assay type: cell-based, human
[2] = cited from earlier work; for clearance / elimination half-life t1/2 / volume of distribution: murine models
[3] = system: p53-positive solid tumors; details: clinical; cited from earlier work
[4] = cited from earlier work
[5] = system: HCT116, UISO-Mel29, CCD33Co and fibroblasts; assay: Confocal imaging of cell penetration; assay type: cell-based, human; details: AF-p28 20 μM or AF-Arg8 5 μM, 2 h, 37 °C, confocal microscopy, Fig. 2A

CCN(CC)CCCC(C)Nc1ccnc2cc(Cl)ccc12 (stereo not shown) [CQ, chloroquine]
effect of CQ on the anti-proliferative effect of p28 ([1]; CQ 10 μM with varying concentrations of p28, 24 h, Fig. 6A, B): significantly enhanced the effect of p28
cytotoxic activity in cancer cells ([1]; Fig. S4): dose-dependent cytotoxic activity
primary route of excretion [2]: hepatic clearance
clearance [2]: 165 mL/min/kg
elimination half-life t1/2 [2]: 46.6 h
volume of distribution [2]: 667 L/kg

CSCC[C@H](NC(=O)CNC(=O)[C@H](CC(=O)O)NC(=O)[C@@H](NC(=O)[C@@H](NC(=O)[C@@H](NC(=O)CNC(=O)[C@H](CCC(N)=O)NC(=O)[C@H](CCSC)NC(=O)[C@H](CC(=O)O)NC(=O)[C@H](C)NC(=O)[C@H](C)NC(=O)[C@@H](NC(=O)[C@H](CO)NC(=O)[C@@H](N)CC(C)C)[C@@H](C)O)C(C)C)C(C)C)[C@@H](C)O)C(=O)N[C@@H](C)C(=O)N[C@@H](CO)C(=O)NCC(=O)N[C@@H](CC(C)C)C(=O)N[C@@H](CC(=O)O)C(=O)N[C@@H](CCCCN)C(=O)N[C@@H](CC(=O)O)C(=O)N[C@@H](Cc1ccc(O)cc1)C(=O)N[C@@H](CC(C)C)C(=O)N[C@@H](CCCCN)C(=O)N1CCC[C@H]1C(=O)N[C@@H](CC(=O)O)C(=O)N[C@@H](CC(=O)O)C(=O)O [p28]
primary route of excretion [2]: renal clearance
clearance [2]: 36.7 mL/min/kg
elimination half-life t1/2 [2]: 0.06 h
volume of distribution [2]: 0.29 L/kg
adverse effects, toxicity, immunogenicity in humans [3]: no significant adverse effects, toxicity or immunogenicity
water solubility [4]: highly water soluble

octaarginine [Arg8]
cell penetration, cancer cells compared to normal cells [5]: penetrated both cancer and normal cells
